# Data: patent publication US6969713B2, “Piperidine and piperazine acetamide derivatives” (AstraZeneca AB, priority 1999, dated 2005)
row,melting point,Structure (SMILES)
1,145 to 187 °C,Cc1ccc(NS(C)(=O)=O)cc1NC(=O)CN1CC2CCC(C1)N2c1ncnc2scnc12
2,265 °C (dec.),O=C1Cc2c(cccc2NC(=O)CN2CC3CCC(C2)N3c2ncnc3sccc23)N1
3,168 to 169 °C,Cc1c(F)cccc1NC(=O)CN1CC2CCC(C1)N2S(=O)(=O)c1ccccc1
4,166 to 168 °C,Cc1ccccc1NC(=O)CN1CC2CCC(C1)N2S(=O)(=O)c1cccc(C#N)c1
5,163 to 165 °C,COc1cccc(S(=O)(=O)N2C3CCC2CN(CC(=O)Nc2ccccc2C)C3)c1
6,167 to 168 °C,Cc1ccccc1NC(=O)CN1CC2CCC(C1)N2S(=O)(=O)c1cccc2nonc12
7,169 to 170 °C,Cc1ccccc1NC(=O)CN1CC2CCC(C1)N2S(=O)(=O)c1cccc2nsnc12
8,150 to 152 °C,Cc1ccccc1NC(=O)CN1CC2CCC(C1)N2S(=O)(=O)c1ccc(Cl)s1
9,170 to 171 °C,Cc1ccccc1NC(=O)CN1CC2CCC(C1)N2S(=O)(=O)c1ccccc1Cl
10,180 to 181 °C,COc1ccc(Cl)cc1S(=O)(=O)N1C2CCC1CN(CC(=O)Nc1ccccc1C)C2
11,205 to 206 °C,CC(=O)Nc1ccc(S(=O)(=O)N2C3CCC2CN(CC(=O)Nc2ccccc2C)C3)cc1
12,199 to 200 °C,Cc1ccccc1NC(=O)CN1CC2CCC(C1)N2c1ncnc2scc(C)c12
13,184 to 185 °C,"Cc1cccc(C)c1NC(=O)CN1CCN(c2ncnc3sccc23)C(C)C1 (racemic) [Example 1, (±)-N-(2,6-Dimethylphenyl)-2-(3-methyl-4-(thieno[2,3-d]pyrimidin-4-yl)piperazin-1-yl)acetamide]"
14,186 to 189 °C,"Cc1cccc(C)c1NC(=O)CN1C[C@@H](C)N(c2ncnc3sccc23)[C@@H](C)C1 [Example 2, cis-[2-(3,5-Dimethyl-4-(thieno[2,3-d]pyrimidin-4-yl)piperazin-1-yl)]-N-(2,6-dimethylphenyl)acetamide]"
15,203 to 204 °C,"Cc1c(CO)cccc1NC(=O)CN1C[C@@H](C)N(c2ncnc3sccc23)[C@@H](C)C1 [Example 4, cis-N-[3-Hydroxymethyl-2-methylphenyl]-2-(3,5-dimethyl-4-(thieno[2,3-d]pyrimidin-4-yl)piperazin-1-yl)acetamide]"
16,174 to 175 °C,"Cc1ccccc1NC(=O)CN1C[C@@H](C)N(c2ncnc3sccc23)[C@@H](C)C1 [Example 6, cis-2-[3,5-Dimethyl-4-(thieno[2,3-d]pyrimidin-4-yl)piperazin-1-yl]-N-(2-methylphenyl)acetamide]"

row,melting point,Structure (SMILES)
1,206 to 207 °C,"C[C@@H]1CN(CC(=O)Nc2ccccc2Cl)C[C@H](C)N1c1ncnc2sccc12 [Example 7, cis-N-(2-Chlorophenyl)-2-[3,5-dimethyl-4-(thieno[2,3-d]pyrimidin-4-yl)piperazin-1-yl]acetamide]"
2,221 to 222 °C,"C[C@@H]1CN(CC(=O)Nc2ccccc2Cl)C[C@H](C)N1c1ncnc2c1ncn2C [Example 8, cis-N-(2-Chlorophenyl)-2-[3,5-dimethyl-4-(9-methyl-9H-purin-6yl)piperazin-1-yl]acetamide]"
3,213 to 216 °C,"C[C@@H]1CN(CC(=O)Nc2cccc3cnccc23)C[C@H](C)N1c1ncnc2sccc12 [Example 9, cis-2-(3,5-Dimethyl-4-(thieno[2,3-d]pyrimidin-4-yl)piperazin-1-yl)-N-(isoquinolin-5-yl)acetamide]"
4,194 to 195 °C,C[C@@H]1CN(CC(=O)Nc2cccc3ncccc23)C[C@H](C)N1c1ncnc2sccc12 [Example 10]
5,154 to 155 °C,"C[C@@H]1CN(CC(=O)Nc2ccccc2C(F)(F)F)C[C@H](C)N1c1ncnc2sccc12 [Example 12, cis-2-(3,5-Dimethyl-4-(thieno[2,3-d]pyrimidin-4-yl)piperazin-1-yl]-N-(2-trifluoromethylphenyl)acetamide]"
6,157 to 159 °C,"Cc1cccnc1NC(=O)CN1C[C@@H](C)N(c2ncnc3sccc23)[C@@H](C)C1 [Example 13, cis-2-(3,5-Dimethyl-4-(thieno[2,3-d]pyrimidin-4-yl)piperazin-1-yl)-N-(3-methylpyridin-2-yl)acetamide]"
7,206 to 207 °C,"C[C@@H]1CN(CC(=O)Nc2nccc3ccccc23)C[C@H](C)N1c1ncnc2sccc12 [Example 14, cis-2-(3,5-Dimethyl-4-(thieno[2,3-d]pyrimidin-4-yl)piperazin-1-yl)-N-(isoquinolin-1-yl)acetamide]"
8,200 °C,"C[C@@H]1CN(CC(=O)Nc2nc3ccccc3n2C)C[C@H](C)N1c1ncnc2sccc12 [Example 49, cis-2-(3,5-Dimethyl-4-(thieno[2,3-d]pyrimidin-4-yl)piperazin-1-yl)-N-(1-methyl-1H-benzoimidazol-2-yl)acetamide]"
9,152 to 153 °C,"Cc1ccccc1NC(=O)CN1C[C@@H](C)N(S(=O)(=O)c2cccc(C#N)c2)[C@@H](C)C1 [Example 55, cis-2-[4-(3-Cyanobenzenesulphonyl)-3,5-dimethylpiperazin-1-yl]-N-(2-methylphenyl)acetamide]"
10,163 to 164 °C,"Cc1ccccc1NC(=O)CN1C[C@@H](C)N(S(=O)(=O)c2cccc([N+](=O)[O-])c2)[C@@H](C)C1 [Example 56, cis-N-(2-Methylphenyl)-2-[4-(3-nitrobenzenesulphonyl)-3,5-dimethylpiperazin-1-yl]-acetamide]"
11,202 to 203 °C,"Cc1ccccc1NC(=O)CN1C[C@@H](C)N(S(=O)(=O)c2cccc(N)c2)[C@@H](C)C1 [Example 57, cis-2-[4-(3-Aminobenzenesulphonyl)-3,5-dimethylpiperazin-1-yl]-N-(2-methylphenyl)acetamide]"
12,236 to 238 °C,"CC(=O)Nc1cccc(S(=O)(=O)N2[C@H](C)CN(CC(=O)Nc3ccccc3C)C[C@@H]2C)c1 [Example 62, cis-2-[4-(3-Acetylaminobenzenesulphonyl)-3,5-dimethylpiperazin-1-yl]-N-(2-methylphenyl)acetamide]"
13,124 to 125 °C,"Cc1ccccc1NC(=O)CN1C[C@@H](C)N(S(=O)(=O)c2cccc(C(N)=O)c2)[C@@H](C)C1 [Example 63, cis-2-[4-(3-Aminocarbonylbenzenesulphonyl)-3,5-dimethylpiperazin-1-yl]-N-(2-methylphenyl)acetamide]"
14,102 to 103 °C,"Cc1ccccc1NC(=O)CN1C[C@@H](C)N(S(=O)(=O)c2cccc(NS(C)(=O)=O)c2)[C@@H](C)C1 [Example 64, cis-2-[4-(3-Methanesulphonylaminobenzenesulphonyl)-3,5-dimethylpiperazin-1-yl]-N-(2-methylphenyl)acetamide]"
15,90 to 92 °C,"Cc1ccccc1NC(=O)CN1C[C@@H](C)N(S(=O)(=O)c2cccc(C(=O)NCCN)c2)[C@@H](C)C1 [Example 71, cis-2-[4-(2-Aminoethylaminocarbonylbenzenesulphonyl)-3,5-dimethylpiperazin-1-yl]-N-(2-methylphenyl)acetamide]"
